The values below are quoted from earlier work in patent US20260007589A1, “METHOD FOR DYEING KERATINOUS MATERIAL COMPRISING THE USE OF AN ORGANOSILICON COMPOUND, AN EFFECT PIGMENT, AND A FILM-FORMING POLYMER III” (Henkel AG & Co. KGaA, priority 2019, published 2026).

Read-outs that look alike come from different tables or passages of the source.

Turning to `O=C([O-])C1=NN(c2ccc(S(=O)(=O)[O-])cc2)C(=O)C1N=Nc1ccc(S(=O)(=O)[O-])cc1.[Na+].[Na+].[Na+]` (centres unmarked) [Acid Yellow 23, trisodium salt of 4,5-dihydro-5-oxo-1-(4-sulfophenyl)-4-((4-sulfophenyl)azo)-1H-pyrazole-3-carboxylic acid], the “solubility in water” value (at 25° C.) is “highly soluble in water”. As for `CCN(Cc1cccc(S(=O)(=O)[O-])c1)c1ccc(C(=C2C=CC(=[N+](CC)Cc3cccc(S(=O)(=O)[O-])c3)C=C2)c2ccccc2S(=O)(=O)[O-])cc1.[Na+].[Na+]` [Acid Blue 9], for the setting “25° C.”, the solubility in water entry is recorded as “more than 20 % by weight”. As to `Nc1cc(S(=O)(=O)[O-])cc2cc(S(=O)(=O)[O-])c(N=Nc3ccccc3)c(O)c12.[Na+].[Na+]` [Acid Red 33, disodium salt of 5-amino-4-hydroxy-3-(phenylazo)-naphthalene-2,7-disulphonate], under “25° C.”, the solubility in water was 2500 µg/mL. In the case of `O=S(=O)([O-])c1ccc(N=Nc2c(O)ccc3ccccc23)cc1.[Na+]` [Acid Orange 7, sodium salt of 4-[(2-hydroxy-1-naphthyl)azo]benzene sulphonate], where the note is “25° C.”, the solubility in water result is recorded as “more than 7 g/L”. For `O=C([O-])c1c(Cl)c(Cl)c(Cl)c(Cl)c1-c1c2c(Br)cc(=O)c(Br)c-2oc2c(Br)c(O)cc(Br)c12.O=C([O-])c1c(Cl)c(Cl)c(Cl)c(Cl)c1-c1c2c(Br)cc(=O)c(Br)c-2oc2c(Br)c(O)cc(Br)c12.[Na+].[Na+]` [Acid Red 92, disodium salt of 3,4,5,6-tetrachloro-2-(1,4,5,8-tetrabromo-6-hydroxy-3-oxoxanthen-9-yl)benzoic acid], the solubility in water result (25° C.) was “greater than 10 g/L”.
